Results on 58 compounds are retold here after patent US20230002387A1, “2-AMINO-S6-SUBSTITUTED THIOPURINE COMPOUNDS AS INHIBITORS OF THE ENPP1 PROTEIN” (ATEN PORUS LIFESCIENCES PVT. LTD., priority 2019, published 2023).

This assay addresses T1, ENPP1 (Homo sapiens, UniProt P22413).
T1 sequence (P22413 1-925): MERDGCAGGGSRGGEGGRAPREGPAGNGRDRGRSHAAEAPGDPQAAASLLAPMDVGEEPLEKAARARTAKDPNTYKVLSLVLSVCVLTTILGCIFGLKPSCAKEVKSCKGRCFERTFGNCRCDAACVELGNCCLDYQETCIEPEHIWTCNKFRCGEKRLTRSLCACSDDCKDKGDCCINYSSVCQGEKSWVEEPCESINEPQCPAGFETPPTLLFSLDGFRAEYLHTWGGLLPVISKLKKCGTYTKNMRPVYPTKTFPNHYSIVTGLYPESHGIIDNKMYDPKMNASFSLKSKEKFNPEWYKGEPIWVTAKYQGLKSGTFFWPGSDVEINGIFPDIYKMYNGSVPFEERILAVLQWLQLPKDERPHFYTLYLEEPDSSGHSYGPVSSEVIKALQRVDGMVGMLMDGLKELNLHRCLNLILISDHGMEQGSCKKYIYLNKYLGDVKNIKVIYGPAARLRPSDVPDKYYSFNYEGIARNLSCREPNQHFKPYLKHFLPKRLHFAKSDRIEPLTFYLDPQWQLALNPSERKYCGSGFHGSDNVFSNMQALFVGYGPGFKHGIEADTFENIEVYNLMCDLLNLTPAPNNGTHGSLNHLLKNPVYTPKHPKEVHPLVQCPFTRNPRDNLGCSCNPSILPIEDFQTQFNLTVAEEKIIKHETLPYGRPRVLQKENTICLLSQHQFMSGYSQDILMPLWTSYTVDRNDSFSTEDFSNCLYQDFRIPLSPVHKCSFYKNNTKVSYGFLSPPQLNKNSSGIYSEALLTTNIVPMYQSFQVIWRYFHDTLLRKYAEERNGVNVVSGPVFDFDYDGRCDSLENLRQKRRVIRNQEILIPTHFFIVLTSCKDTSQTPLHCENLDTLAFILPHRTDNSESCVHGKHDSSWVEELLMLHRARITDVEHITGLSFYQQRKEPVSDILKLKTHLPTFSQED
Briefly: Capillary electrophoresis-based NPP assay with ATP as a substrate (ENPP1 inhibition, Ki). The class given is biochemical. The note with it: Ki from IC50 by Cheng-Prusoff, 400 μM ATP. As for the experimental part:
Here, a Capillary Electrophoresis based method was used to determine the IC50 values for ENPP1 Inhibitors for ENNP1 protein.
The inhibitors synthesized were assessed for ENPP1 inhibitory potency against the natural substrate ATP. The enzyme inhibition assays were performed in 10 mM 2-(N-cyclohexylamino)-ethanesulfonic acid (CHES) buffer (pH 10.0) including 1 mM MgCl2, 2 mM CaCl2), and 400 μM of ATP, with different inhibitor concentrations. The reaction mixture was incubated with 20 ng human NPP1 at 37° C. for 30 min in a final volume of 100 μL, and the reactions were stopped by heating at 90° C. for 3 min. Finally, the reaction mixtures were directly measured by capillary electrophoresis (CE). The CE instrumentation and operating conditions were as follows: P/ACE MDQ capillary electrophoresis system (Beckman Instruments, Fullerton, Calif., USA) with a DAD detection system, polyacrylamide-coated capillaries of 40 cm effective length×[…] (id) obtained from CS Chromatographie GmbH (Langerwehe, Germany), 50 mM phosphate buffer (pH 6.5) as running buffer, electrokinetic injection (−6 kV, 60 s), separation voltage of −15 kV. The amounts of AMP produced were measured at 260 nm. Data collection and peak area analysis were performed by 32 Karat software obtained from Beckman Coulter (Fullerton, Calif., USA).
The IC50 values of test compounds were calculated by plotting data in the program Prism 5.0, and the Ki values were calculated from the IC50 values with the Cheng-Prusoff equation (Tables 2-4).

On to `COc1nc(NC(=O)[C@@H](Cc2ccccc2)Sc2nc(N)nc3nc[nH]c23)ncc1Cl` [Compound 551], for which the Ki (as a rule, a dissociation constant, usually derived from enzyme kinetics or from competition with a known ligand) (bin of Table 2) was ≤ 100 nM. Consider `Cc1ccc(S(N)(=O)=O)cc1NC(=O)Cn1cnc2ncnc(N)c21` [Compound 30], for which the Ki (bin of Table 4) is ≥ 1000 nM. Consider `Nc1nc(SCC(=O)Nc2ccc3nccnc3c2)c2[nH]cnc2n1` [Compound 185], for which, for the setting “bin of Table 2”, the Ki is ≤ 100 nM. Take `Nc1nc(SCC(=O)Nc2ccc3ncsc3c2)c2[nH]cnc2n1` [Compound 181]: the Ki (bin of Table 2) is ≤ 100 nM.

For the compound `CCOc1nc(NC(=O)[C@@H](CC)Sc2nc(N)nc3nc[nH]c23)ncc1Br` [Compound 712], under “bin of Table 2”, the Ki was ≤ 100 nM.

As to `CC[C@H](Sc1nc(N)nc2nc[nH]c12)C(=O)Nc1ncc(Br)c(OC)n1` [Compound 509], under “bin of Table 2”, the Ki was ≤ 100 nM. The same measure, in the same setting: the result for `CC[C@H](Sc1nc(N)nc2nc[nH]c12)C(=O)Nc1ccc(OC)c(OC)n1` [Compound 472] reads ≤ 100 nM.

With `Nc1nc(SCC(=S)Nc2ccc(O)c(C(=O)O)c2)c2[nH]cnc2n1` [Compound 408], the Ki (bin of Table 2) was ≤ 100 nM. As for `COc1ccc(CNC(=O)CSc2nc(N)nc3nc[nH]c23)cc1OC` [Compound 105], the Ki (bin of Table 4) was ≥ 1000 nM. On to `COc1ccnc(NC(=O)[C@H](CCc2ccccc2)Sc2nc(N)nc3nc[nH]c23)n1` [Compound 506], for which the Ki (bin of Table 2) is ≤ 100 nM.

`COc1ccc(NC(=O)Cn2cnc3ncnc(N)c32)cc1OC` [Compound 18]: under “bin of Table 4”, the Ki was ≥ 1000 nM. Regarding `CC[C@@H](Sc1nc(N)nc2nc[nH]c12)C(=O)Nc1nc(Cl)cc(OC)n1` [Compound 496], the Ki (bin of Table 2) is ≤ 100 nM.

Turning to `CC[C@@H](Sc1nc(N)nc2nc[nH]c12)C(=O)Nc1nccc(OC)n1` [Compound 389], for the setting “bin of Table 2”, the Ki was ≤ 100 nM.

Turning to `COc1ccc(NC(=O)CSc2nc3ccncc3o2)cc1OC` [Compound 22], the Ki (bin of Table 4) was ≥ 1000 nM. For the compound `CC[C@H](Sc1nc(N)nc2nc[nH]c12)C(=O)Nc1nccc(OC)n1` [Compound 435], the Ki (bin of Table 2) is ≤ 100 nM. Same read-out and setting: the result for `COc1nc(NC(=O)C2(Sc3nc(N)nc4nc[nH]c34)CCC2)ncc1Br` [Compound 558] reads ≤ 100 nM; that for `COc1ccc(NC(=O)CSc2nc(N)nc3nc[nH]c23)nc1OC` [Compound 160], ≤ 100 nM; that for `CC(=O)c1cc(NC(=O)CSc2nc(N)nc3nc[nH]c23)ccc1O` [Compound 199], ≤ 100 nM. On the same count and under the same terms, under `CC[C@@H](Sc1nc(N)nc2nc[nH]c12)C(=O)Nc1cc(OC)ccn1` [Compound 471] stands ≤ 100 nM; under `CC(C)Oc1ccnc(NC(=O)C(C)(C)Sc2nc(N)nc3nc[nH]c23)n1` [Compound 534], ≤ 100 nM; under `COc1ccc(NC(=O)CSc2nc(N)nc3nc[nH]c23)cc1OC` [Compound 46, 2-((2-amino-7H-purin-6-yl)thio)-N-(3,4-dimethoxyphenyl)acetamide], ≤ 100 nM. Still for that read-out and setting: the result for `COc1ccnc(NC(=O)[C@H](C)Sc2nc(N)nc3nc[nH]c23)n1` [Compound 487] reads ≤ 100 nM. Regarding `COc1ccc(NC(=O)CSc2nc(N)nc3nc[nH]c23)cc1C(=O)O` [Compound 144], the Ki (bin of Table 4) was ≥ 1000 nM.

Take `Nc1nc(S[C@@H](CCc2ccccc2)C(=O)Nc2ccc(O)c(C(=O)O)c2)c2[nH]cnc2n1` [Compound 485]: the Ki (bin of Table 2) is ≤ 100 nM. Still for that read-out and setting: the result for `COc1nc(NC(=O)[C@H](Sc2nc(N)nc3nc[nH]c23)C(C)C)ncc1Br` [Compound 514] reads ≤ 100 nM; that for `CCOc1nc(NC(=O)[C@H](CC)Sc2nc(N)nc3nc[nH]c23)ncc1Br` [Compound 678], ≤ 100 nM; that for `COc1ccnc(NC(=O)C(C)(C)Sc2nc(N)nc3nc[nH]c23)n1` [Compound 504], ≤ 100 nM. On to `CCC(Sc1nc(N)nc2nc[nH]c12)C(=O)Nc1ccc(O)c(C(=O)O)c1` (stereo not shown) [Compound 249], for which, where the note is “bin of Table 2”, the Ki was ≤ 100 nM. On the same count and under the same terms, under `COc1ccnc(NC(=O)[C@@H](CCc2ccccc2)Sc2nc(N)nc3nc[nH]c23)n1` [Compound 507] stands ≤ 100 nM; under `COc1ccc(NC(=O)CSc2nc(N)nc3nc[nH]c23)cc1Cl` [Compound 128], ≤ 100 nM. Take `COc1ccc(NC(=O)CSc2ncnc3[nH]cnc23)cc1OC` [Compound 45]: where the note is “bin of Table 4”, the Ki is ≥ 1000 nM. Turning to `COc1ccc(NC(=O)CSc2nc(N)nc3nc[nH]c23)cc1` [Compound 107], the Ki (bin of Table 4) is ≥ 1000 nM.

As for `COc1nc(NC(=O)[C@@H](Sc2nc(N)nc3nc[nH]c23)C(C)C)ncc1Br` [Compound 515], the Ki (bin of Table 2) was ≤ 100 nM. In the case of `CC[C@H](Sc1nc(N)nc2nc[nH]c12)C(=O)Nc1ncc(Cl)c(OC)n1` [Compound 609], under “bin of Table 2”, the Ki is ≤ 100 nM.

On to `COc1cc2ncc(Nc3cc(S(N)(=O)=O)ccc3C)nc2cc1OC` [Compound 8], for which the Ki (bin of Table 4) was ≥ 1000 nM. In the case of `COc1ccc(NC(=O)[C@@H](C)Sc2nc(N)nc3nc[nH]c23)nc1OC` [Compound 490], the Ki (bin of Table 2) was ≤ 100 nM. Same read-out and setting: under `COc1nc(NC(=O)[C@@H](Cc2ccccc2)Sc2nc(N)nc3nc[nH]c23)ncc1Br` [Compound 552] stands ≤ 100 nM. Take `Nc1nc(SCC(=O)NCc2ccccc2)c2[nH]cnc2n1` [Compound 103]: the Ki (bin of Table 4) is ≥ 1000 nM. For `COc1ccc(NC(=O)[C@H](C)Sc2nc(N)nc3nc[nH]c23)nc1OC` [Compound 491], the Ki (bin of Table 2) was ≤ 100 nM.

With `CCOc1nc(NC(=O)[C@H](CC)Sc2nc(N)nc3nc[nH]c23)ncc1F` [Compound 673], for the setting “bin of Table 2”, the Ki was ≤ 100 nM. Still for that read-out and setting: under `Cc1nc2cc(NC(=O)CSc3nc(N)nc4nc[nH]c34)ccc2s1` [Compound 182] stands ≤ 100 nM. On the same count and under the same terms, the result for `COc1ccc(C(=O)NCCSc2nc(N)nc3nc[nH]c23)cc1OC` [Compound 148, N-(2-((2-amino-7H-purin-6-yl)thio)ethyl)-3,4-dimethoxybenzamide] reads ≤ 100 nM; that for `Nc1nc(SCC(=O)Nc2ccc(O)c(Br)c2)c2[nH]cnc2n1` [Compound 194], ≤ 100 nM.

In the case of `CC[C@H](Sc1nc(N)nc2nc[nH]c12)C(=O)Nc1ccc(O)c(C(=O)O)c1` [Compound 267], the Ki (bin of Table 2) is ≤ 100 nM. Turning to `Nc1nc(SCC(=O)Nc2ccc3ncccc3c2)c2[nH]cnc2n1` [Compound 184], the Ki (bin of Table 2) is ≤ 100 nM. `CCOc1ccc(NC(=O)CSc2nc(N)nc3nc[nH]c23)cc1OCC` [Compound 84]: the Ki (bin of Table 4) is ≥ 1000 nM. As to `COc1ccc(NC(=S)CSc2nc(N)nc3nc[nH]c23)cc1OC` [Compound 355], the Ki (bin of Table 2) is ≤ 100 nM.

For the compound `COc1cc2ncc(SCC(=O)Nc3cc(S(N)(=O)=O)ccc3C)nc2cc1OC` [Compound 36], the Ki (bin of Table 4) was ≥ 1000 nM.

With `CC[C@@H](Sc1nc(N)nc2nc[nH]c12)C(=O)Nc1ncc(Br)c(OC)n1` [Compound 508], where the note is “bin of Table 2”, the Ki was ≤ 100 nM. Same read-out and setting: the result for `CCOc1nc(NC(=O)[C@@H](Sc2nc(N)nc3nc[nH]c23)C(C)C)ncc1F` [Compound 679] reads ≤ 100 nM; that for `COc1ccnc(NC(=O)[C@@H](Sc2nc(N)nc3nc[nH]c23)C(C)C)n1` [Compound 510], ≤ 100 nM; that for `COc1nc(NC(=O)C(C)(C)Sc2nc(N)nc3nc[nH]c23)ncc1F` [Compound 529], ≤ 100 nM. Still for that read-out and setting: the result for `COc1nc(NC(=O)[C@H](Cc2ccccc2)Sc2nc(N)nc3nc[nH]c23)ncc1Cl` [Compound 554] reads ≤ 100 nM.

Take `COc1ccc(NC(=O)Cn2nnc3ncccc32)cc1OC` [Compound 35]: the Ki (bin of Table 4) was ≥ 1000 nM. Take `Nc1nc(SCC(=O)Nc2ccc(Cl)c(O)c2)c2[nH]cnc2n1` [Compound 207]: where the note is “bin of Table 2”, the Ki is ≤ 100 nM. On to `CC(C)(Sc1nc(N)nc2nc[nH]c12)C(=O)Nc1ccc(O)c(C(=O)O)c1` [Compound 251], for which the Ki (bin of Table 4) is ≥ 1000 nM.

In the case of `CC[C@@H](Sc1nc(N)nc2nc[nH]c12)C(=O)Nc1ncc(Cl)c(OC)n1` [Compound 608], the Ki (bin of Table 2) is ≤ 100 nM.

As to `CC(C)Oc1nc(NC(=O)C(C)(C)Sc2nc(N)nc3nc[nH]c23)ncc1Br` [Compound 543], the Ki (bin of Table 2) was ≤ 100 nM.
